Experiments:
[1] = tested on: L1210; assay: Cytotoxicity against mouse L1210 cells after 4 hrs by MTT assay; type: functional
[2] = biological target: Proto-oncogene tyrosine-protein kinase Src (Homo sapiens) (UniProt P12931); assay: Inhibition of Src at 10 uM after 20 mins
Chain of Proto-oncogene tyrosine-protein kinase Src (Homo sapiens) (P12931 2-536 limits assumed): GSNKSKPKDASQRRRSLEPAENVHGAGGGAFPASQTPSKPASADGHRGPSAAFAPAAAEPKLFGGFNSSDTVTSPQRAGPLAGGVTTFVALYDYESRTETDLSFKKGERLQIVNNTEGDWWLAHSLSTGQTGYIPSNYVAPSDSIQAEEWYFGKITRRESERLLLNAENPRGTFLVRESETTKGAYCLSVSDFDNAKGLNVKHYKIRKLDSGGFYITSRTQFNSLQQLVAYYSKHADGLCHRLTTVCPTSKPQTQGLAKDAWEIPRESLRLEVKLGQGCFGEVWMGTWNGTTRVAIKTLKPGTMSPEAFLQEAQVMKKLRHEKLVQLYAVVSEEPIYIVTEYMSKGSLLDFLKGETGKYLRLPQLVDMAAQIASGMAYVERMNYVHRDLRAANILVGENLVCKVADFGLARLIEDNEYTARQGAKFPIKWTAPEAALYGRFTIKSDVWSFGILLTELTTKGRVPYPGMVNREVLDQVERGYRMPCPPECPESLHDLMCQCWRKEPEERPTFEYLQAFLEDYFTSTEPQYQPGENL

inhibition [2] [%] | SMILES | Activity [1] [µM]
20 | Cl.Clc1ccccc1Nc1ncnc2c1nc1n2Cc2ccccc2N1CCN1CCOCC1 | 11.9
9 | Cl.c1ccc(CNc2ncnc3c2nc2n3Cc3ccccc3N2CCN2CCOCC2)cc1 | 31
72 | Nc1ncnc2c1nc1n2Cc2ccccc2N1 | 7.3
15 | Cl.c1ccc(Nc2ncnc3c2nc2n3Cc3ccccc3N2CCN2CCOCC2)cc1 | 16.1
0 | CCN(CC)CCN1c2ccccc2Cn2c1nc1c(Nc3ccccc3)ncnc12.Cl | 17.9
58 | c1ccc(Nc2ncnc3c2nc2n3Cc3ccccc3N2)cc1 | 34.3
49 | Nc1nc(Cl)nc2c1nc1n2Cc2ccccc2N1 | 23
30 | Brc1ccccc1Nc1ncnc2c1nc1n2Cc2ccccc2N1CCN1CCOCC1.Cl | 21.9
